According to the supplement of paper PMC11451515:

Test system: SEM cells
Experiment: cell viability relative to DMSO control; higher = less cytotoxic
Conditions: 48 h
Summary of the method: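 NOMO1, SEM and P12-Ichikawa leukemia cells spent at least four passages adapting to each medium before use. They were seeded at 500 cells/well (NOMO1, SEM) or 1000 cells/well (P12-Ichikawa) in 5 μl in 1536-well plates and pin-dosed with library compounds in DMSO at 11 threefold steps from 47 μM down to 0.79 nM. After 48 h at 37°C, CellTiter-Glo One luminescence was read. Viability is reported as a percentage of the DMSO wells on each plate, with cell-free wells as background.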

[1] = HPLM + 10% dialyzed FBS, 0.000781 µM
[2] = HPLM + 10% dialyzed FBS, 0.00234 µM
[3] = HPLM + 10% dialyzed FBS, 0.00702 µM
[4] = HPLM + 10% dialyzed FBS, 0.0211 µM
[5] = HPLM + 10% dialyzed FBS, 0.0632 µM
[6] = HPLM + 10% dialyzed FBS, 0.19 µM
[7] = HPLM + 10% dialyzed FBS, 0.569 µM
[8] = HPLM + 10% dialyzed FBS, 1.71 µM
[9] = HPLM + 10% dialyzed FBS, 5.12 µM
[10] = HPLM + 10% dialyzed FBS, 15.4 µM
[11] = HPLM + 10% dialyzed FBS, 46.1 µM
[12] = RPMI 5 mM glucose + 10% FBS, 0.000781 µM
[13] = RPMI 5 mM glucose + 10% FBS, 0.00234 µM
[14] = RPMI 5 mM glucose + 10% FBS, 0.00702 µM
[15] = RPMI 5 mM glucose + 10% FBS, 0.0211 µM
[16] = RPMI 5 mM glucose + 10% FBS, 0.0632 µM
[17] = RPMI 5 mM glucose + 10% FBS, 0.19 µM
[18] = RPMI 5 mM glucose + 10% FBS, 0.569 µM
[19] = RPMI 5 mM glucose + 10% FBS, 1.71 µM
[20] = RPMI 5 mM glucose + 10% FBS, 5.12 µM
[21] = RPMI 5 mM glucose + 10% FBS, 15.4 µM
[22] = RPMI 5 mM glucose + 10% FBS, 46.1 µM
[23] = RPMI 5 mM glucose + 10% dialyzed FBS, 0.000781 µM
[24] = RPMI 5 mM glucose + 10% dialyzed FBS, 0.00234 µM
[25] = RPMI 5 mM glucose + 10% dialyzed FBS, 0.00702 µM
[26] = RPMI 5 mM glucose + 10% dialyzed FBS, 0.0211 µM
[27] = RPMI 5 mM glucose + 10% dialyzed FBS, 0.0632 µM
[28] = RPMI 5 mM glucose + 10% dialyzed FBS, 0.19 µM
[29] = RPMI 5 mM glucose + 10% dialyzed FBS, 0.569 µM
[30] = RPMI 5 mM glucose + 10% dialyzed FBS, 1.71 µM
[31] = RPMI 5 mM glucose + 10% dialyzed FBS, 5.12 µM
[32] = RPMI 5 mM glucose + 10% dialyzed FBS, 15.4 µM
[33] = RPMI 5 mM glucose + 10% dialyzed FBS, 46.1 µM

Row | SMILES | cell viability [1] [%] | cell viability [2] [%] | cell viability [3] [%] | cell viability [4] [%] | cell viability [5] [%] | cell viability [6] [%] | cell viability [7] [%] | cell viability [8] [%] | cell viability [9] [%] | cell viability [10] [%] | cell viability [11] [%] | cell viability [12] [%] | cell viability [13] [%] | cell viability [14] [%] | cell viability [15] [%] | cell viability [16] [%] | cell viability [17] [%] | cell viability [18] [%] | cell viability [19] [%] | cell viability [20] [%] | cell viability [21] [%] | cell viability [22] [%] | cell viability [23] [%] | cell viability [24] [%] | cell viability [25] [%] | cell viability [26] [%] | cell viability [27] [%] | cell viability [28] [%] | cell viability [29] [%] | cell viability [30] [%] | cell viability [31] [%] | cell viability [32] [%] | cell viability [33] [%]
1 | CCOC(=O)N[C@@H]1CC[C@@H]2[C@@H](C1)C[C@H]1C(=O)O[C@H](C)[C@H]1[C@H]2/C=C/c1ccc(-c2cccc(F)c2)cn1 | 86.6 | 87.5 | 102 | 111 | 105 | 104 | 111 | 99.5 | 112 | 104 | 75.7 | 95.9 | 81.8 | 98.5 | 107 | 111 | 107 | 106 | 103 | 103 | 100 | 23.3 | 108 | 87.3 | 110 | 112 | 117 | 115 | 108 | 119 | 112 | 112 | 37.1
2 | COc1ccc(C2(C#N)CCC(C(=O)O)CC2)cc1OC1CCCC1 (stereo not given) | 85.5 | 97.5 | 95.9 | 101 | 99.6 | 102 | 103 | 94.7 | 105 | 106 | 114 | 77.3 | 85.3 | 94.1 | 90.4 | 87.4 | 95.5 | 104 | 95.8 | 88.3 | 99.4 | 99.6 | 81.8 | 86.8 | 104 | 94.4 | 84.3 | 95.5 | 92.2 | 100 | 90.4 | 96.9 | 96.3
3 | Oc1ccc(-c2ccc(-c3cc(Nc4cccc(CNC5CC5)c4)[nH]n3)cc2)c(O)c1 | 82.4 | 100 | 93.7 | 93.7 | 70.7 | 103 | 91.1 | 46.7 | 25.7 | 9.24 | 6.68 | 97.8 | 106 | 95 | 101 | 72.6 | 89.7 | 110 | 94.5 | 45.7 | 27.4 | 4.97 | 89 | 96.9 | 100 | 87.9 | 84.1 | 99.6 | 100 | 84.8 | 60.2 | 22.8 | 9.47
4 | Oc1ccc([C@@H]2Oc3ccc(O)cc3[C@@H]3CCC[C@@H]32)cc1 | 71.9 | 90.5 | 91.8 | 92 | 80.2 | 90.6 | 38.7 | 81.9 | 89.3 | 31.4 | 21.6 | 60.6 | 103 | 97.5 | 103 | 106 | 111 | 44.4 | 103 | 104 | 40.3 | 18.1 | 80.4 | 94.9 | 98.4 | 97 | 96.1 | 104 | 102 | 103 | 94.9 | 29 | 18.4
5 | Nc1nc(N)c(N=O)c(OCC2CCCCC2)n1 | 71.5 | 92.1 | 54.6 | 88.7 | 91.9 | 100 | 89.4 | 75.5 | 40.8 | 39 | 28.2 | 94.7 | 84.2 | 56.6 | 91.4 | 97.2 | 93.3 | 96.7 | 74 | 47.8 | 38.1 | 27.4 | 81.6 | 86.2 | 71.4 | 86.8 | 96 | 100 | 102 | 79 | 56.5 | 45.2 | 32
6 | COc1cc(OC)c(C(=O)CCCN2CCCC2)c(OC)c1 | 119 | 117 | 127 | 114 | 115 | 108 | 115 | 113 | 93 | 107 | 109 | 122 | 143 | 118 | 135 | 126 | 118 | 127 | 112 | 109 | 105 | 123 |  |  |  |  |  |  |  |  |  |  | 
7 | COc1ccc2[nH]cc(CCNC(C)=O)c2c1 | 91 | 110 | 113 | 116 | 127 | 114 | 114 | 101 | 103 | 117 | 106 | 112 | 123 | 124 | 124 | 117 | 114 | 124 | 102 | 110 | 123 | 119 | 121 | 131 | 114 | 144 | 125 | 113 | 120 | 104 | 100 | 124 | 113
8 | CC(C)(Sc1ccc(CCN(CCCCC2CCCCC2)C(=O)NC2CCCCC2)cc1)C(=O)O | 98.9 | 105 | 110 | 102 | 106 | 113 | 111 | 96.3 | 94.4 | 93.9 | 98.9 | 96.3 | 108 | 117 | 114 | 102 | 105 | 105 | 98.8 | 107 | 89.6 | 75.9 | 103 | 107 | 102 | 111 | 117 | 101 | 114 | 96.9 | 101 | 113 | 82.1
9 | Cc1c(C(=O)c2cccc3ccccc23)c2cccc3c2n1[C@H](CN1CCOCC1)CO3 | 99.3 | 78.2 | 85.2 | 89.5 | 89.7 | 28.8 | 97.9 | 86.7 | 84 | 78.1 | 4.91 | 93.6 | 74.4 | 71.3 | 94.6 | 88.6 | 47.8 | 93.1 | 80.4 | 95.6 | 84.9 | 4.48 | 104 | 80.4 | 82 | 105 | 98 | 65.1 | 92.3 | 93.1 | 91.7 | 76.5 | 5.76
10 | CCC(C1CCC(C)C(O1)C(C)C(O)C(C)C(=O)C(CC)C2OC\3(O[C@]4(CC[C@@](C)(O4)C5CC[C@@](O)(CC)C(C)O5)C(O)\C=C3)C(C)CC2C)C([O-])=O (stereo not given in full) | 105 | 13.3 | 124 | 103 | 113 | 118 | 116 | 77.4 | 29.6 | 22.9 | 21.3 | 107 | 101 | 110 | 107 | 110 | 109 | 98.3 | 55 | 25.5 | 14.3 | 10.4 | 58.1 | 15 | 97.9 | 97.9 | 113 | 97.8 | 89.1 | 50.2 | 26.9 | 22.5 | 14.3
11 | N#Cc1ccnc(N2C(=O)CC[C@H]2C(=O)N(c2cncc(F)c2)[C@H](C(=O)NC2CC(F)(F)C2)c2ccccc2Cl)c1 | 94.8 | 104 | 92.2 | 83.1 | 93.7 | 96.7 | 93.6 | 87.6 | 25.4 | 17.6 | 19.1 | 119 | 144 | 119 | 132 | 146 | 134 | 108 | 50.5 | 19.1 | 14.9 | 16.1 | 104 | 100 | 94.6 | 110 | 91.9 | 101 | 105 | 85.9 | 34 | 16.4 | 17.9
12 | N=C(N)Nc1ccc(C(=O)Oc2ccc3cc(C(=N)N)ccc3c2)cc1 | 95.5 | 87.7 | 87.7 | 92.8 | 96.7 | 25.8 | 102 | 105 | 95.4 | 99.4 | 79.2 | 91.5 | 87.6 | 85.5 | 83.1 | 86.1 | 21.5 | 88.7 | 93.6 | 88.8 | 93.4 | 84 | 112 | 90.4 | 87.3 | 113 | 91.7 | 29.6 | 99.6 | 110 | 92.3 | 110 | 80.4
13 | CCc1cc(-c2n[nH]c(C)c2-c2ccc3c(c2)OCCO3)c(O)cc1O | 98 | 123 | 137 | 117 | 128 | 124 | 126 | 111 | 111 | 32.9 | 36.2 | 106 | 123 | 115 | 127 | 134 | 140 | 120 | 115 | 102 | 31.4 | 25.2 |  |  |  |  |  |  |  |  |  |  | 
14 | C[N+]1(C)[C@@H]2CC(OC(=O)C(O)(c3cccs3)c3cccs3)C[C@H]1[C@@H]1O[C@@H]12 (stereo not given in full) | 94.8 | 95.5 | 107 | 102 | 113 | 103 | 103 | 114 | 106 | 113 | 108 | 85.4 | 104 | 92.6 | 83 | 110 | 96.3 | 99.3 | 103 | 99.3 | 114 | 92.1 | 90.9 | 98 | 105 | 113 | 119 | 119 | 111 | 139 | 108 | 121 | 101
15 | COc1cc2c(Nc3ccc(Cl)c(Cl)c3F)ncnc2cc1OC[C@@H]1C[C@@H]2CN(C)C[C@@H]2C1 | 88.5 | 78.5 | 86.2 | 91.6 | 94.5 | 94.5 | 94.4 | 91.5 | 87.8 | 40 | 3.92 |  |  |  |  |  |  |  |  |  |  |  | 88.8 | 91.6 | 110 | 103 | 121 | 91.1 | 103 | 95.5 | 93.7 | 74.7 | 3.96
16 | CN1CCN(CCCN2c3ccccc3Sc3ccc(Cl)cc32)CC1.O=C(O)/C=C\C(=O)O.O=C(O)/C=C\C(=O)O | 105 | 112 | 110 | 113 | 108 | 112 | 104 | 114 | 112 | 117 | 82.2 | 102 | 113 | 118 | 111 | 129 | 122 | 119 | 121 | 119 | 115 | 68.6 | 101 | 99.7 | 128 | 113 | 115 | 122 | 119 | 133 | 133 | 116 | 104
